What all share (assay): relative viability (nuclei count vs DMSO), 5 days (fraction); higher = more cells survive
Compound in experiment [1]: CC[C@H](Nc1ncnc2[nH]cnc12)c1nc2cccc(F)c2c(=O)n1-c1ccccc1 [Idelalisib] + CC(=O)Nc1cccc(-n2c(=O)n(C3CC3)c(=O)c3c(Nc4ccc(I)cc4F)n(C)c(=O)c(C)c32)c1 [Trametinib] (partner 0.02 µM)
The gist of the method: (§1)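 Relative viability equals treated-well nuclei counts divided by vehicle-well nuclei counts. Counts came from 4× images of lung cancer cell lines grown in 1536-well plates for 5 days after pin-tool dosing on the day after seeding. Dosing used one drug alone or a fixed anchor-drug dose plus five library-drug doses (not always all listed) in √10 steps, and values are medians of duplicate plates.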

Compound in experiment [2]: CC[C@H](Nc1ncnc2[nH]cnc12)c1nc2cccc(F)c2c(=O)n1-c1ccccc1 [Idelalisib] + NC(=O)Nc1cc(-c2cccc(F)c2)sc1C(=O)N[C@H]1CCCNC1 [AZD7762] (partner 0.2 µM)
The gist of the method:
as §1

Compound in experiment [3]: Nc1nc2[nH]cc(CCc3ccc(C(=O)N[C@@H](CCC(=O)O)C(=O)O)cc3)c2c(=O)[nH]1 [Pemetrexed] + CC1(C)CCC(c2ccc(Cl)cc2)=C(CN2CCN(c3ccc(C(=O)NS(=O)(=O)c4ccc(N[C@H](CCN5CCOCC5)CSc5ccccc5)c(S(=O)(=O)C(F)(F)F)c4)cc3)CC2)C1 [Navitoclax] (partner 0.5 µM)
In short, it runs like this: as §1

Compound in experiment [4]: CC[C@H](Nc1ncnc2[nH]cnc12)c1nc2cccc(F)c2c(=O)n1-c1ccccc1 [Idelalisib] + CC(=O)c1c(C)c2cnc(Nc3ccc(N4CCNCC4)cn3)nc2n(C2CCCC2)c1=O [Palbociclib] (partner 0.5 µM)
In short, it runs like this: as §1

These results are taken from the supplement of paper PMC10307832.

Regarding EMC-BAC-2, the relative viability in experiment [1] (first compound 0.04 µM) stood at 0.953; in experiment [1] (first compound 0.1265 µM) it was 0.875; in experiment [1] (first compound 0.4 µM), 0.795; in experiment [1] (first compound 1.265 µM), 0.863; in experiment [1] (first compound 4 µM), 0.859; in experiment [2] (first compound 0.04 µM), 1.08. The relative viability is 1.1 in experiment [2] (first compound 0.1265 µM); 1.02 in experiment [2] (first compound 0.4 µM); 1.11 in experiment [2] (first compound 1.265 µM); 1.08 in experiment [2] (first compound 4 µM); 1.14 in experiment [3] (first compound 0.002 µM); 1.09 in experiment [3] (first compound 0.006325 µM). Also, the relative viability worked out at 1.21 in experiment [3] (first compound 0.02 µM); 1.2 in experiment [3] (first compound 0.06325 µM); 1.09 in experiment [3] (first compound 0.2 µM); 0.546 in experiment [4] (first compound 0.04 µM); 0.502 in experiment [4] (first compound 0.1265 µM); 0.489 in experiment [4] (first compound 0.4 µM). Besides, the relative viability in experiment [4] (first compound 1.265 µM) is 0.522; in experiment [4] (first compound 4 µM) it was 0.482.

Take NCI-H1355: the relative viability in experiment [1] (first compound 0.04 µM) amounted to 0.305; in experiment [1] (first compound 0.1265 µM), 0.38; in experiment [1] (first compound 0.4 µM), 0.41; in experiment [1] (first compound 1.265 µM), 0.467; in experiment [1] (first compound 4 µM) it was 0.284; in experiment [2] (first compound 0.04 µM) it was 0.817. For the same cell line, the relative viability stood at 0.786 in experiment [2] (first compound 0.1265 µM); 0.625 in experiment [2] (first compound 0.4 µM); 0.523 in experiment [2] (first compound 1.265 µM); 0.703 in experiment [2] (first compound 4 µM); 0.86 in experiment [3] (first compound 0.002 µM); 0.885 in experiment [3] (first compound 0.006325 µM). Also, the relative viability amounted to 0.951 in experiment [3] (first compound 0.02 µM); 0.942 in experiment [3] (first compound 0.06325 µM); 0.872 in experiment [3] (first compound 0.2 µM); 0.415 in experiment [4] (first compound 0.04 µM); 0.407 in experiment [4] (first compound 0.1265 µM); 0.333 in experiment [4] (first compound 0.4 µM). The relative viability in experiment [4] (first compound 1.265 µM) is 0.364; in experiment [4] (first compound 4 µM), 0.312.

On to NCI-H1792, for which the relative viability in experiment [1] (first compound 0.04 µM) is 0.487; in experiment [1] (first compound 0.1265 µM), 0.522; in experiment [1] (first compound 0.4 µM) it was 0.271; in experiment [1] (first compound 1.265 µM) it was 0.56; in experiment [1] (first compound 4 µM), 0.267; in experiment [2] (first compound 0.04 µM), 0.737. The relative viability in experiment [2] (first compound 0.1265 µM) was found to be 0.803; in experiment [2] (first compound 0.4 µM), 0.452; in experiment [2] (first compound 1.265 µM), 0.493; in experiment [2] (first compound 4 µM), 0.388; in experiment [3] (first compound 0.002 µM) it was 0.59; in experiment [3] (first compound 0.006325 µM) it was 0.823. The relative viability in experiment [3] (first compound 0.02 µM) came out at 0.579; in experiment [3] (first compound 0.06325 µM), 0.564; in experiment [3] (first compound 0.2 µM) it was 0.585; in experiment [4] (first compound 0.04 µM), 0.632; in experiment [4] (first compound 0.1265 µM) it was 0.668; in experiment [4] (first compound 0.4 µM), 0.557. In addition, the relative viability came out at 0.668 in experiment [4] (first compound 1.265 µM) and 0.55 in experiment [4] (first compound 4 µM).

As for NCI-H1944, the relative viability in experiment [1] (first compound 0.04 µM) was determined as 0.448; in experiment [1] (first compound 0.1265 µM) it was 0.354; in experiment [1] (first compound 0.4 µM), 0.336; in experiment [1] (first compound 1.265 µM), 0.352; in experiment [1] (first compound 4 µM), 0.318; in experiment [2] (first compound 0.04 µM), 0.554. Further, the relative viability in experiment [2] (first compound 0.1265 µM) turned out to be 0.501; in experiment [2] (first compound 0.4 µM) it was 0.457; in experiment [2] (first compound 1.265 µM), 0.2; in experiment [2] (first compound 4 µM), 0.61; in experiment [3] (first compound 0.002 µM), 0.945; in experiment [3] (first compound 0.006325 µM), 1.01. For the same cell line, the relative viability in experiment [3] (first compound 0.02 µM) was found to be 1.03; in experiment [3] (first compound 0.06325 µM), 1.08; in experiment [3] (first compound 0.2 µM), 1.01; in experiment [4] (first compound 0.04 µM), 0.36; in experiment [4] (first compound 0.1265 µM) it was 0.315; in experiment [4] (first compound 0.4 µM), 0.297. The relative viability in experiment [4] (first compound 1.265 µM) was determined as 0.292; in experiment [4] (first compound 4 µM), 0.283.

On to HOP-62, for which the relative viability worked out at 0.345 in experiment [1] (first compound 0.04 µM); 0.354 in experiment [1] (first compound 0.1265 µM); 0.292 in experiment [1] (first compound 0.4 µM); 0.362 in experiment [1] (first compound 1.265 µM); 0.247 in experiment [1] (first compound 4 µM); 0.731 in experiment [2] (first compound 0.04 µM). The relative viability in experiment [2] (first compound 0.1265 µM) amounted to 0.706; in experiment [2] (first compound 0.4 µM), 0.398; in experiment [2] (first compound 1.265 µM), 0.304; in experiment [2] (first compound 4 µM), 0.545; in experiment [3] (first compound 0.002 µM) it was 1.03; in experiment [3] (first compound 0.006325 µM) it was 1.01. The relative viability worked out at 1.19 in experiment [3] (first compound 0.02 µM); 0.906 in experiment [3] (first compound 0.06325 µM); 0.894 in experiment [3] (first compound 0.2 µM); 0.441 in experiment [4] (first compound 0.04 µM); 0.468 in experiment [4] (first compound 0.1265 µM); 0.411 in experiment [4] (first compound 0.4 µM). Moreover, the figures for the relative viability in experiment [4] (first compound 1.265 µM) and in experiment [4] (first compound 4 µM) were 0.468 and 0.328, respectively.
